From patent US9686984B2, “Macrocyclic picolinamides as fungicides” (DOW AGROSCIENCES LLC, priority 2014, dated 2017)
Read-outs that look alike come from different tables or passages of the source.

Key:
[1] = tested on: Zymoseptoria tritici; assay: Leaf Blotch of Wheat (SEPTTR) disease control on wheat seedlings; type: in vivo; settings: for pest or weed control at 121.5 g/ha: Low Volume (121.5 g/H); for pest or weed control at 100 µg/mL: High Volume (100 ppm)
Protocol: Example A: Evaluation of Fungicidal Activity: Leaf Blotch of Wheat (Mycosphaerella graminicola; Anamorph: Zymoseptoria tritici; Bayer code […]) Technical grades of materials were dissolved in acetone, which were then mixed with nine volumes of water containing 110 ppm Triton X-100. The fungicide solutions were applied onto wheat seedlings using an automated booth sprayer to run-off. All sprayed plants were allowed to air dry prior to further handling. All fungicides were evaluated using the aforementioned method for their activity vs. all target diseases, unless stated otherwise. Wheat leaf blotch and brown rust activity were also evaluated using track spray applications, in which case the fungicides were formulated as EC formulations, containing 0.1% Trycol 5941 in the spray solutions. Wheat plants (variety Yuma) were grown from seed in a greenhouse in 50% mineral soil/50% soil-less Metro mix until the first leaf was fully emerged, with 7-10 seedlings per pot. These plants were inoculated with an aqueous spore suspension of Septoria tritici either prior to or after fungicide treatments. After inoculation the plants were kept in 100% relative humidity (one day in a dark dew chamber followed by two to three days in a lighted dew chamber at 20° C.) to permit spores to germinate and infect the leaf. The plants were then transferred to a greenhouse set at 20° C. for disease to develop. When disease symptoms were fully expressed on the 1st leaves of untreated plants, infection levels were assessed on a scale of 0 to 100 percent disease severity. Percent disease control was calculated using the ratio of disease severity on treated plants relative to untreated plants.

[2] = tested on: Puccinia triticina; assay: Wheat Brown Rust (PUCCRT) disease control on wheat seedlings; type: in vivo; settings: for pest or weed control at 121.5 g/ha: Low Volume (121.5 g/H); for pest or weed control at 100 µg/mL: High Volume (100 ppm)
Protocol: Technical grades of materials were dissolved in acetone, which were then mixed with nine volumes of water containing 110 ppm Triton X-100. The fungicide solutions were applied onto wheat seedlings using an automated booth sprayer to run-off. All sprayed plants were allowed to air dry prior to further handling. All fungicides were evaluated using the aforementioned method for their activity vs. all target diseases, unless stated otherwise. Wheat leaf blotch and brown rust activity were also evaluated using track spray applications, in which case the fungicides were formulated as EC formulations, containing 0.1% Trycol 5941 in the spray solutions. Wheat plants (variety Yuma) were grown from seed in a greenhouse in 50% mineral soil/50% soil-less Metro mix until the first leaf was fully emerged, with 7-10 seedlings per pot. These plants were inoculated with an aqueous spore suspension of Septoria tritici either prior to or after fungicide treatments. After inoculation the plants were kept in 100% relative humidity (one day in a dark dew chamber followed by two to three days in a lighted dew chamber at 20° C.) to permit spores to germinate and infect the leaf. The plants were then transferred to a greenhouse set at 20° C. for disease to develop. When disease symptoms were fully expressed on the 1st leaves of untreated plants, infection levels were assessed on a scale of 0 to 100 percent disease severity. Percent disease control was calculated using the ratio of disease severity on treated plants relative to untreated plants. Example B: Evaluation of Fungicidal Activity: Wheat Brown Rust (Puccinia triticina; Synonym: Puccinia recondita f. sp. tritici; Bayer code PUCCRT) Wheat plants (variety Yuma) were grown from seed in a greenhouse in 50% mineral soil/50% soil-less Metro mix until the first leaf was fully emerged, with 7-10 seedlings per pot. These plants were inoculated with an aqueous spore suspension of Puccinia triticina either prior to or after fungicide treatments. After inoculation the plants were kept in a dark dew room at 22° C. with 100% relative humidity overnight to permit spores to germinate and infect the leaf. The plants were then transferred to a greenhouse set at 24° C. for disease to develop. Fungicide formulation, application and disease assessment followed the procedures as described in the Example A.

[3] = 24 h, 1 Day Protectant, read-out: SEPTTR disease control, 1 DP
[4] = 72 h, 3 Day Curative, read-out: SEPTTR disease control, 3 DC
[5] = 24 h, 1 Day Protectant, read-out: PUCCRT disease control, 1 DP
[6] = 72 h, 3 Day Curative, read-out: PUCCRT disease control, 3 DC

Row | melting point | Structure (SMILES) | pest or weed control at 121.5 g/ha [1, 3] | pest or weed control at 121.5 g/ha [1, 4] | pest or weed control at 121.5 g/ha [2, 5] | pest or weed control at 121.5 g/ha [2, 6] | pest or weed control at 100 µg/mL [1, 3] | pest or weed control at 100 µg/mL [1, 4] | pest or weed control at 100 µg/mL [2, 5] | pest or weed control at 100 µg/mL [2, 6]
1 | 195 to 197 °C | CCCC[C@H]1[C@H](C)OC(=O)[C@@H](N)CCO[C@@H]1COc1ccccc1.Cl | – | – | – | – | – | – | – | –
2 | 48 to 54 °C | COc1ccnc(C(=O)N[C@H]2CCO[C@H](CCc3ccccc3)[C@@H](CCC(C)C)[C@H](C)OC2=O)c1OCOC(C)=O [Compound 26] | > 70% | > 70% | > 70% | > 70% | – | – | – | –
3 | – | CCCC[C@H]1[C@H](C)OC(=O)[C@@H](NC(=O)c2nccc(OC)c2OCOC(C)=O)CCO[C@@H]1COC(=O)C(C)C [Compound 32] | > 70% | > 70% | > 70% | > 70% | – | – | – | –
4 | – | CCCC[C@H]1[C@H](C)OC(=O)[C@@H](NC(=O)c2nccc(OC)c2OCOC(C)=O)CCO[C@@H]1CC [Compound 34] | < 70% | < 70% | > 70% | > 70% | – | – | – | –
5 | – | CCCC[C@H]1[C@H](C)OC(=O)[C@@H](NC(=O)c2nccc(OC)c2OCOC(C)=O)CCO[C@@H]1COc1ccccc1 [Compound 35] | > 70% | > 70% | > 70% | > 70% | – | – | – | –
6 | – | COc1ccnc(C(=O)N[C@H]2CCOC[C@@H](Cc3ccccc3)[C@H](C)OC2=O)c1OCOC(=O)C(C)C [Compound 36] | > 70% | < 70% | > 70% | > 70% | – | – | – | –
7 | – | COc1ccnc(C(=O)N[C@H]2CCO[C@H](Cc3ccccc3)[C@@H](Cc3ccccc3)[C@H](C)OC2=O)c1OCOC(=O)C(C)C [Compound 37, ((2-(((2R,3S,4S,7S)-2,3-dibenzyl-4-methyl-6-oxo-1,5-dioxonan-7-yl)carbamoyl)-4-methoxypyridin-3-yl)oxy)methyl isobutyrate] | > 70% | > 70% | > 70% | > 70% | – | – | – | –
8 | – | COc1ccnc(C(=O)N[C@H]2CCO[C@H](CCc3ccccc3)[C@@H](Cc3ccc(F)cc3)[C@H](C)OC2=O)c1OCOC(=O)C(C)C [Compound 38] | > 70% | > 70% | > 70% | > 70% | – | – | – | –
9 | – | CCCC[C@H]1[C@H](C)OC(=O)[C@@H](NC(=O)c2nccc(OC)c2OCOC(=O)C(C)C)CCO[C@@H]1COc1ccccc1 [Compound 41] | > 70% | > 70% | > 70% | > 70% | – | – | – | –
10 | – | CCOCC(=O)OCOc1c(OC)ccnc1C(=O)N[C@H]1CCOC[C@@H](Cc2ccccc2)[C@H](C)OC1=O [Compound 42, ((2-(((3R,4S,7S)-3-benzyl-4-methyl-6-oxo-1,5-dioxonan-7-yl)carbamoyl)-4-methoxypyridin-3-yl)oxy)methyl 2-ethoxyacetate] | > 70% | > 70% | > 70% | > 70% | – | – | – | –
11 | – | CCOCC(=O)OCOc1c(OC)ccnc1C(=O)N[C@H]1CCO[C@H](Cc2ccccc2)[C@@H](Cc2ccccc2)[C@H](C)OC1=O [Compound 44] | > 70% | > 70% | > 70% | > 70% | – | – | – | –
12 | – | CCCC[C@H]1[C@H](C)OC(=O)[C@@H](NC(=O)c2nccc(OC)c2OCOC(=O)COCC)CCO[C@@H]1CCc1ccccc1 [Compound 45] | > 70% | > 70% | > 70% | > 70% | – | – | – | –
13 | – | CCCC[C@H]1[C@H](C)OC(=O)[C@@H](NC(=O)c2nccc(OC)c2OCOC(=O)COCC)CCO[C@@H]1CC [Compound 46] | > 70% | < 70% | > 70% | > 70% | – | – | – | –
14 | – | CCCC[C@H]1[C@H](C)OC(=O)[C@@H](NC(=O)c2nccc(OC)c2OCOC(=O)COCC)CCO[C@@H]1COc1ccccc1 [Compound 47] | > 70% | > 70% | > 70% | > 70% | – | – | – | –
15 | – | CCOCC(=O)Oc1c(OC)ccnc1C(=O)N[C@H]1CCOC[C@@H](Cc2ccccc2)[C@H](C)OC1=O [Compound 48, 2-(((3R,4S,7S)-3-benzyl-4-methyl-6-oxo-1,5-dioxonan-7-yl)carbamoyl)-4-methoxypyridin-3-yl 2-ethoxyacetate] | < 70% | < 70% | > 70% | > 70% | – | – | – | –
16 | – | CC[C@H]1OCC[C@H](NC(=O)c2nccc(OC)c2O)C(=O)O[C@@H](C)[C@@H]1Cc1ccc(F)cc1 [Compound 55] | – | – | – | – | > 70% | > 70% | > 70% | > 70%
17 | – | CCCC[C@H]1OCC[C@H](NC(=O)c2nccc(OC)c2O)C(=O)O[C@@H](C)[C@@H]1Cc1ccc(F)cc1 [Compound 56] | – | – | – | – | < 70% | > 70% | > 70% | > 70%
18 | – | COc1ccnc(C(=O)N[C@H]2CCO[C@H](CCc3ccccc3)[C@@H](Cc3ccc(F)cc3)[C@H](C)OC2=O)c1O [Compound 57, N-((2R,3S,4S,7S)-3-(4-fluorobenzyl)-4-methyl-6-oxo-2-phenethyl-1,5-dioxonan-7-yl)-3-hydroxy-4-methoxypicolinamide] | – | – | – | – | > 70% | > 70% | > 70% | < 70%
19 | – | COc1ccnc(C(=O)N[C@H]2CCO[C@H](CCc3ccccc3)[C@@H](CCC(C)C)[C@H](C)OC2=O)c1O [Compound 59] | – | – | – | – | > 70% | > 70% | > 70% | > 70%
20 | 49 to 53 °C | COc1ccnc(C(=O)N[C@H]2CCOC[C@@H](CCC(C)C)[C@H](C)OC2=O)c1O [Compound 63] | – | – | – | – | – | – | – | –
21 | – | CCCC[C@H]1[C@H](C)OC(=O)[C@@H](NC(=O)c2nccc(OC)c2O)CCO[C@@H]1CCc1ccccc1 [Compound 64] | – | – | – | – | > 70% | > 70% | > 70% | > 70%
22 | – | CCCC[C@H]1[C@H](C)OC(=O)[C@@H](NC(=O)c2nccc(OC)c2O)CCO[C@@H]1COc1ccccc1 [Compound 68] | – | – | – | – | > 70% | < 70% | > 70% | > 70%
23 | 39 to 44 °C | CC(C)CC[C@H]1[C@H](C)OC(=O)[C@@H](NC(=O)OC(C)(C)C)CCO[C@@H]1CCc1ccc(F)cc1 [Compound 100] | – | – | – | – | – | – | – | –
24 | 41 to 44 °C | CC(C)CC[C@H]1[C@H](C)OC(=O)[C@@H](NC(=O)OC(C)(C)C)CCO[C@@H]1Cc1ccccc1 [Compound 102] | – | – | – | – | – | – | – | –
25 | 110 to 112 °C | CC(C)CC[C@@H]1COCC[C@H](NC(=O)OC(C)(C)C)C(=O)O[C@H]1C [Compound 103] | – | – | – | – | – | – | – | –
